# Measured values as given in patent publication US20030229122A1, “Use of methylphenidate compounds to enhance memory” (Sention, Inc., priority 2000, published 2003).
# “Also recorded” adds a separate entry of the source.
# Assays:
# [1] = tested on: IA memory in the rat; assay: Inhibitory Avoidance (IA) task, retention latency in normal rats; format: in vivo
# Method: An exemplary passive avoidance test utilizes an apparatus that consists of a lit chamber that can be separated from a dark chamber by a sliding door. At training, the animal is placed in the lit chamber for some period of time, and the door is opened. The animal moves to the dark chamber after a short delay—the latency—that is recorded. Upon entry into the dark chamber, the door is shut closed and a foot shock is delivered. Retention of the experience is determined after various time intervals, e.g., 24 or 48 hours, by repeating the test and recording the latency. The protocol is one of many variants of the passive avoidance procedures (for review, see Rush (1988) Behav Neural Biol 50:255).
# The Inhibitory Avoidance (IA) task is a well-studied behavioral paradigm which can provide the researcher with a consistent and long-lasting measure of memory. The paradigm consists of one training trial and one retention trial. Test articles may be administered to the rats either before or after training. Improved memory, as a result of test compound administration, is evident as increased latency on the retention trial. The objective of the following experiments was to investigate the effects of methylphenidate on IA memory in the rat.
# In this experiment, rats were injected with three different doses of methylphenidate thirty minutes prior to training on the IA task.
# Rats were injected with 5 mg/kg of methylphenidate and trained on the IA task.
# In this experiment, the time of drug administration was varied in order to determine the optimal pre-training drug administration time.
# This experiment was conducted in order to determine whether the enhanced retention observed in Experiment 2 was long-lasting. Rats received a second retention test one week after the first retention test. No additional training or drug was administered to the animals in the interim period.
# In the next experiment, we investigated whether the performance of amnesic rats could be improved by administration of methylphenidate. In this experiment, control rats and rats with lesions of the fornix received injections of either saline or methylphenidate (5 mg/kg), and one hour later, were tested on the IA task.
# [2] = tested on: rats with lesions of the fornix; assay: Inhibitory Avoidance (IA) task in rats with lesions of the fornix (amnesic rats); format: in vivo, rat; settings: 5 mg/kg, tested one hour after injection
# Excerpt: Applicants have previously described an animal model for studying fornix-mediated memory consolidation. See, for example, Taubenfield et al., Supra. The fornix-lesioned animals can be used for drug screening, e.g., to identify dosages of the subject compositions which enhance memory consolidation. The lesioned mammal can have a lesion of the fornix or a related brain structure that disrupts memory consolidation (e.g., perirhinal cortex, amygdala, medial septal nucleus, locus coeruleus, hippocampus, mammillary bodies). Lesions in the mammal can be produced by mechanical or chemical disruption. For example, the fornix lesion can be caused by surgical ablation, electrolytic, neurotoxic and other chemical ablation techniques, or reversible inactivation such as by injection of an anesthetic, e.g., tetrodotoxin or lidocaine, to temporarily arrest activity in the fornix.
# In one embodiment, the animal can be a rat. Briefly, the animals are anesthetized, e.g., with intraperitoneal injections of a ketamine-xylazine mixture and positioned in a Kopf stereotaxic instrument. A sagittal incision is made in the scalp and a craniotomy is performed extending 2.0 mm posterior and 3.0 mm lateral from Bregma. […]
smiles,measurement,setting,value
"COC(=O)C(c1ccccc1)C1CCCCN1 (stereo not drawn) [methylphenidate, methyl α-phenyl-2-piperidineacetate]",IA performance of normal rats (FIG. 3),"[1]; normal control rats, 5 mg/kg, tested one hour after injection, post hoc p<0.05, 5 mg/kg",dramatically enhanced; also recorded: significantly enhanced relative to all other experimental groups
same,retention on the IA task (FIG. 1),"[1]; rats, 5 mg/kg injected thirty minutes prior to training",improved retention
same,optimal pre-training drug administration time,"[1]; rats, 5 mg/kg, time of administration varied",most effective when administered to the rats one hour prior to training
same,"retention of the IA task, verifying experiment (FIG. 2)","[1]; rats, 5 mg/kg, unpaired t-test p<0.03",significantly improved retention
same,retention on the IA task (FIG. 1),"[1]; rats, 10 mg/kg injected thirty minutes prior to training",no effect
same,retention on the IA task (FIG. 1),"[1]; rats, 15 mg/kg injected thirty minutes prior to training",no effect
same,"long-term retention, second retention test","[1]; rats, one week after the first retention test, no additional training or drug, t(54)=2.358, p<0.0220",still significantly enhanced
same,IA performance of fornix lesion rats (FIG. 3),[2],"appeared to improve; also recorded: not significantly different from normal, saline injected animals"
